For 4 molecules, IC50 results are on record in ChEMBL document CHEMBL5728605, “Aromatic acetylene or aromatic ethylene compound, intermediate, preparation method, pharmaceutical composition and use thereof” (2021).

By pIC50 is commonly meant the IC50 on a negative log10 scale, so that one unit is a factor of ten.

pIC50: −log10 of the molar value.

Sequence of Programmed cell death protein 1/Programmed cell death 1 ligand 1 (Q15116 whole entry): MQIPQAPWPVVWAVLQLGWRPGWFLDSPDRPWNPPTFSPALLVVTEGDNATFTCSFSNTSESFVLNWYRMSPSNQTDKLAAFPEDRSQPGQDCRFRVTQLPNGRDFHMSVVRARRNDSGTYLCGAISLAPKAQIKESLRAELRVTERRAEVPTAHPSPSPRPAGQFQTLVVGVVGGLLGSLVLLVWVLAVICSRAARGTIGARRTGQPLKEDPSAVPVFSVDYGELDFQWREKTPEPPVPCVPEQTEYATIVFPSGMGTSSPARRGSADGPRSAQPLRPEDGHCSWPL
Sequence of Programmed cell death protein 1/Programmed cell death 1 ligand 1 (Q9NZQ7 whole entry): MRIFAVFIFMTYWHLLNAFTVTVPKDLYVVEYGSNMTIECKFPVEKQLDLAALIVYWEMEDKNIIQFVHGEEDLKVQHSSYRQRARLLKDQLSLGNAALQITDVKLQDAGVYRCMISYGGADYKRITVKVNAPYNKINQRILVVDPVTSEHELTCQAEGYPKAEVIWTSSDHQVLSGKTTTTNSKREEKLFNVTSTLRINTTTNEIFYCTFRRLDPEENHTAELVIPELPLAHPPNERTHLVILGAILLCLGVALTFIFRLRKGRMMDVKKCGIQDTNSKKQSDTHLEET

The assay concerns the target Programmed cell death protein 1/Programmed cell death 1 ligand 1 (Homo sapiens, UniProt Q15116+Q9NZQ7). In words: Homogeneous Time-Resolved Fluorescence (HTRF) Binding Assay: 1. The compound was formulated to 10 concentrations with a 3-fold gradient with 100% DMSO.2. The solution of the compound in DMSO was added to Dilute Buffer, mixed thoroughly, then transferred to a 96-well plate.3. PD-L1 was diluted with Dilute Buffer, then added to the above 96-well plate.4. PD-1 was diluted with Dilute Buffer and added to the above 96-well plate, which was then incubated at room temperature for 30 minutes.5. A portion of anti-tag1-Eu and a portion of anti-tag2-XL665 were added to Detection Buffer, mixed thoroughly and transferred to the above 96-well plate.6. The mixture in the above 96-well plate was incubated at room temperature for 1 to 24 hours.7. HTRF values were read with Envision. The format is protein-complex assay. In general terms: Time-resolved FRET reads energy transfer from a long-lived donor to a nearby acceptor.
As for `COc1cc(/C=C/c2cccc(-c3ccccc3)c2C)cc(OC)c1CN[C@@H](C)C(=O)O`, the negative logarithm of the IC50 (pIC50) was 6.77.
The result for `COc1cc(/C=C/c2cccc(-c3ccccc3)c2C)cc(OC)c1CN1CCCC[C@H]1C(=O)O` reads 7.22; that for `COc1cc(/C=C/c2cccc(-c3ccccc3)c2C)cc(OC)c1CN[C@H](CO)C(=O)O`, 7.10; that for `COc1cc(/C=C/c2cccc(-c3ccccc3)c2C)cc(OC)c1CN[C@@H](CO)C(=O)O`, 7.30.
